The record followed here is paper PMC6149751, “Spiro[pyrrolidine-3,3′-oxindoles] and Their Indoline Analogues as New 5-HT6 Receptor Chemotypes” (Molecules : A Journal of Synthetic Chemistry and Natural …, 2017).

Common to all, as to assay type: binding
One test has as its target T1, 5-HT6R (Homo sapiens, UniProt P50406).
T1 construct: gene HTR6; full-length human receptor stably expressed in HEK293 cells; membranes
The experiment in a line: [3H]-LSD displacement, HEK293 membranes. The text has this:
[3H]-LSD displacement, HEK293 membranes on 5-HT6R

The target in a further test is T2, 5-HT7bR (Homo sapiens, UniProt P34969).
T2 construct: gene HTR7; human splice isoform 5-HT7b stably expressed in HEK293 cells; membranes
The experiment in a line: [3H]-5-CT displacement, HEK293 membranes. The text has this: [3H]-5-CT displacement, HEK293 membranes on 5-HT7bR

For the next test, the target named is T3, 5-HT2AR (Homo sapiens, UniProt P28223).
T3 construct: gene HTR2A; full-length human receptor expressed from plasmid in CHO-K1 cells (PerkinElmer); membranes
As to the kind of experiment: [3H]-Ketanserin displacement, CHO-K1 membranes. From the text: [3H]-Ketanserin displacement, CHO-K1 membranes on 5-HT2AR

The target of the next test is T4, 5-HT1AR (Homo sapiens, UniProt P08908).
T4 construct: gene HTR1A; full-length human receptor stably expressed in HEK293 cells; membranes
T4 sequence (P08908 1-422): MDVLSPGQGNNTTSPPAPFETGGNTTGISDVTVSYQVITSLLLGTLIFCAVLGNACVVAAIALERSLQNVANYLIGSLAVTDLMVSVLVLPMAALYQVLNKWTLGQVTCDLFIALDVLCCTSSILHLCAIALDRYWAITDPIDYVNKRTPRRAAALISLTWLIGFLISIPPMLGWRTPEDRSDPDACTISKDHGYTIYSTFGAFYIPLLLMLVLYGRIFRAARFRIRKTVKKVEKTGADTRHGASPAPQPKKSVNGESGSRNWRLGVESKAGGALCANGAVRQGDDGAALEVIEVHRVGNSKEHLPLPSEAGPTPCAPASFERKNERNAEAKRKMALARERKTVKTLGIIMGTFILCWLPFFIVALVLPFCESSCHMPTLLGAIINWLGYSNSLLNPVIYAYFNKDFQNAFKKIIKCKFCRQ
As to the kind of experiment: [3H]-8-OH-DPAT displacement, HEK293 membranes. From the text: [3H]-8-OH-DPAT displacement, HEK293 membranes on 5-HT1AR

Where two headings read alike, the source gives them in different places.

T3 sequence (P28223 whole entry): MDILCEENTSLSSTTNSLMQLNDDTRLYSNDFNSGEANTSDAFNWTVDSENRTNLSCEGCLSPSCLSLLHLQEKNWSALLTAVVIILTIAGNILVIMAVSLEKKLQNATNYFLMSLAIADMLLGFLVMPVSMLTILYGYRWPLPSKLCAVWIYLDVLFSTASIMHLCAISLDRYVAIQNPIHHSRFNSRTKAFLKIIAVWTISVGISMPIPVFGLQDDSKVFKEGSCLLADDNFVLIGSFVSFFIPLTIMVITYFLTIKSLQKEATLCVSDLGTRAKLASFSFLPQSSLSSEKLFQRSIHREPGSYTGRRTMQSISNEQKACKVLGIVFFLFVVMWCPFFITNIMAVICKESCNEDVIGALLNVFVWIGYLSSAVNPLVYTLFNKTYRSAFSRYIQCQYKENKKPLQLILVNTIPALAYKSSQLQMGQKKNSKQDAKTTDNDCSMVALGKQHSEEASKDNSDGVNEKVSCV
T2 sequence (P34969 1-432): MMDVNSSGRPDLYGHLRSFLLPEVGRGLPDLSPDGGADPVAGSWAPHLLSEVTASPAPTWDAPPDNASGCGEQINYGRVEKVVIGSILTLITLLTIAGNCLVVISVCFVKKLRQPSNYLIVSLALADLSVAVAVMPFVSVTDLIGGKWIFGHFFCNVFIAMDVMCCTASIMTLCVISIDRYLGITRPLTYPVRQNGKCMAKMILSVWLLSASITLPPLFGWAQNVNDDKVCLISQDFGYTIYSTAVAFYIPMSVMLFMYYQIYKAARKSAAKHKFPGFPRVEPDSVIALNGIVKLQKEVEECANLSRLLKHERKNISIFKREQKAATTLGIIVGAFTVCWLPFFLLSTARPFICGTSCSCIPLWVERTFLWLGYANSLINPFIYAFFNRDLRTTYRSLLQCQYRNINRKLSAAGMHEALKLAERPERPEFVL
T1 sequence (P50406 whole entry): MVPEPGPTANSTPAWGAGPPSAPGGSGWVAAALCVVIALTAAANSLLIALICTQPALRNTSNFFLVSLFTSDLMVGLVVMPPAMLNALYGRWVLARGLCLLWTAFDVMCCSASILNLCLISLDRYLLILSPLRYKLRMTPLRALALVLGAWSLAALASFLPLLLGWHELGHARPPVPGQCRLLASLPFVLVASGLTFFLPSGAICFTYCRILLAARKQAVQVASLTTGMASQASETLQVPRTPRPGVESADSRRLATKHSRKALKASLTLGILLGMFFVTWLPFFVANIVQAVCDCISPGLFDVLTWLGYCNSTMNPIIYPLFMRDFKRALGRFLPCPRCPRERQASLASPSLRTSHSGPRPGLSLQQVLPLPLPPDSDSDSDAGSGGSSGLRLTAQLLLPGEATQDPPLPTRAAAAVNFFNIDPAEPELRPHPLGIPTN

Take `CC(C)c1ccc(C2NCCC23C(=O)Nc2ccccc23)cc1` (centres unmarked) [compound 14, 14]: the Ki worked out at 8.62 µM at 5-HT6R, 8.98 µM on 5-HT7bR, 4.54 µM at 5-HT2AR and 7.76 µM at 5-HT1AR.
For `O=C1Nc2ccccc2C12CCNC2c1ccc(OCc2ccc(F)cc2)cc1` (centres unmarked) [compound 8, 8] the same measures were 3.18 µM, 1.09 µM, 2.28 µM and 1.74 µM.
For `O=S(=O)(c1ccc(F)cc1)N1CC2(CCN(Cc3ccccc3)C2)c2ccccc21` (centres unmarked) [46c, 1′-Benzyl-1-((4-fluorophenyl)sulfonyl)spiro[indoline-3,3′-pyrrolidine]], the values for the Ki on 5-HT6R (read-out: 5-HT6) and on 5-HT7bR (read-out: 5-HT7) were 2.45 µM and 56.1 µM, respectively.
In the case of `O=S(=O)(c1ccccc1)N1CC2(CCN(Cc3ccncc3)C2)c2ccccc21` (centres unmarked) [39b, 1-(Phenylsulfonyl)-1′-(pyridin-4-ylmethyl)spiro[indoline-3,3′-pyrrolidine]], the Ki at 5-HT6R came to 6.6 µM; on 5-HT2AR it was 26.9 µM.
Take `N#Cc1cccnc1Oc1ccc(C2NCCC23C(=O)Nc2ccccc23)cc1` (centres unmarked) [compound 11, 11]: the Ki on 5-HT6R amounted to 6.2 µM; on 5-HT7bR it was 59 µM; on 5-HT2AR it was 8.68 µM; at 5-HT1AR, 49.1 µM.
For the compound `O=S(=O)(c1ccccc1)N1CC2(CCN(Cc3ccccc3F)C2)c2ccccc21` (centres unmarked) [44a, 1′-(2-Fluorobenzyl)-1-(phenylsulfonyl)spiro[indoline-3,3′-pyrrolidine]], the Ki on 5-HT6R was 4.53 µM; at 5-HT7bR, 78.9 µM.
For `O=S(=O)(c1ccccc1F)N1CC2(CCN(Cc3ccccc3)C2)c2ccccc21` (centres unmarked) [46a, 1′-Benzyl-1-((2-fluorophenyl)sulfonyl)spiro[indoline-3,3′-pyrrolidine]], the Ki at 5-HT6R (read-out: 5-HT6) was 0.19 µM; on 5-HT7bR (read-out: 5-HT7) it was 42.6 µM.
For `O=C1Nc2ccccc2C12CCN(S(=O)(=O)c1ccccc1)C2` (centres unmarked) [compound 18, 1′-(Phenylsulfonyl)spiro[indoline-3,3′-pyrrolidin]-2-one], the Ki came out at 6.86 µM on 5-HT6R and 87.4 µM at 5-HT2AR.
For `O=S(=O)(c1ccccc1)N1CC2(CCN(Cc3ccc(F)cc3)C2)c2ccccc21` (centres unmarked) [44c, 1′-(4-Fluorobenzyl)-1-(phenylsulfonyl)spiro[indoline-3,3′-pyrrolidine]], the results for the Ki at 5-HT6R (read-out: 5-HT6) and at 5-HT7bR (read-out: 5-HT7) were 1.77 µM and 15.7 µM, respectively.
`O=C1Nc2ccccc2C12CCNC2c1cccc2cccnc12` (centres unmarked) [compound 12, 12]: the Ki on 5-HT6R amounted to 6.63 µM; at 5-HT7bR it was 10.5 µM; at 5-HT2AR it was 1.12 µM; on 5-HT1AR it was 45.7 µM.
For `O=S(=O)(c1cccc(F)c1)N1CC2(CCN(Cc3ccccc3)C2)c2ccccc21` (centres unmarked) [46b, 1′-Benzyl-1-((3-fluorophenyl)sulfonyl)spiro[indoline-3,3′-pyrrolidine]], the Ki at 5-HT6R (read-out: 5-HT6) came out at 0.71 µM; on 5-HT7bR (read-out: 5-HT7), 76 µM.
Turning to `COc1ccc(C2NCCC23C(=O)Nc2ccccc23)cc1OC` (centres unmarked) [compound 7, 7], the Ki was found to be 2.26 µM at 5-HT6R, 2.69 µM at 5-HT7bR, 5.45 µM on 5-HT2AR and 7.07 µM on 5-HT1AR.
For `COc1cc(C2NCCC23C(=O)Nc2ccccc23)ccc1OC(F)F` (centres unmarked) [compound 13, 13], in that order: 7.73 µM, 7.49 µM, 5.77 µM and 7.14 µM.
Consider `O=S(=O)(c1ccccc1)N1CC2(CCN(Cc3cccc(F)c3)C2)c2ccccc21` (centres unmarked) [44b, 1′-(3-Fluorobenzyl)-1-(phenylsulfonyl)spiro[indoline-3,3′-pyrrolidine]], for which the Ki on 5-HT6R (read-out: 5-HT6) came to 1.97 µM; at 5-HT7bR (read-out: 5-HT7), 31.5 µM.
Consider `O=C1Nc2ccccc2C12CCNC2c1ccc2c(c1)OCCO2` (centres unmarked) [compound 10, 10], for which the Ki at 5-HT6R turned out to be 4.11 µM; on 5-HT7bR, 12.7 µM; on 5-HT2AR, 4.33 µM; on 5-HT1AR, 12.1 µM.
As for `O=S(=O)(c1ccccc1)N1CC2(CCN(Cc3ccccc3)C2)c2ccccc21` (centres unmarked) [39a, 1′-Benzyl-1-(phenylsulfonyl)spiro[indoline-3,3′-pyrrolidine]], the Ki at 5-HT6R (read-out: 5-HT6) turned out to be 0.76 µM; at 5-HT7bR (read-out: 5-HT7) it was 55.8 µM; on 5-HT2AR (read-out: 5-HT2A), 4.76 µM.
For the compound `CCN1CCC2(C1)CN(S(=O)(=O)c1ccccc1)c1ccccc12` (centres unmarked) [40b, 1′-Ethyl-1-(phenylsulfonyl)spiro[indoline-3,3′-pyrrolidine]], the Ki amounted to 2.42 µM at 5-HT6R (read-out: 5-HT6) and 3.82 µM at 5-HT2AR (read-out: 5-HT2A).
With `Cn1c(=O)n(C)c2cc(C3NCCC34C(=O)Nc3ccccc34)ccc21` (centres unmarked) [compound 15, 15], the Ki on 5-HT6R worked out at 9.49 µM; on 5-HT7bR it was 46.7 µM; at 5-HT2AR, 23.7 µM; at 5-HT1AR it was 40.5 µM.
Consider `O=C1Nc2ccccc2C12CCNC2c1cccc(F)c1` (centres unmarked) [compound 6, 2′-(3-fluorophenyl)spiro[indoline-3,3′-pyrrolidin]-2-one], for which the Ki was determined as 6.75 µM on 5-HT6R (read-out: 5-HT6), 8.48 µM at 5-HT7bR (read-out: 5-HT7), 5.05 µM on 5-HT2AR (read-out: 5-HT2A) and 16.9 µM at 5-HT1AR (read-out: 5-HT1A).
Take `O=C1N(S(=O)(=O)c2ccccc2)c2ccccc2C12CCNC2` (centres unmarked) [compound 17, 1-(Phenylsulfonyl)spiro[indoline-3,3′-pyrrolidin]-2-one]: the Ki on 5-HT6R (read-out: 5-HT6) worked out at 12.3 µM; at 5-HT7bR (read-out: 5-HT7) it was 58.3 µM.
As to `O=C1Nc2ccc(F)cc2C12CCNC2c1ccc(F)c(Cl)c1` (centres unmarked) [compound 16, 16], the Ki on 5-HT6R amounted to 16.5 µM; at 5-HT2AR, 53.9 µM.
As for `CN1CCC2(C1)CN(S(=O)(=O)c1ccccc1)c1ccccc12` (centres unmarked) [40a, 1′-Methyl-1-(phenylsulfonyl)spiro[indoline-3,3′-pyrrolidine]], the Ki on 5-HT6R (read-out: 5-HT6) stood at 1.85 µM; at 5-HT7bR (read-out: 5-HT7), 40.2 µM; on 5-HT2AR (read-out: 5-HT2A), 4.52 µM.
As for `O=C1Nc2ccccc2C12CCNC2c1ccc2c(c1)OCO2` (centres unmarked) [compound 9, 9], the Ki came out at 3.2 µM at 5-HT6R, 8.82 µM at 5-HT7bR, 2.69 µM at 5-HT2AR and 9.84 µM at 5-HT1AR.
